Test results published in PubChem BioAssay (NCI).
Values joined by “and” are separate entries in the source; they are usually repeats but may differ in a detail not shown here. Equal entries are not always repeated.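 Assay format: 96-well plates, 48-hour exposure. GI50: concentration for 50% inhibition of growth. TGI denotes the concentration required for complete inhibition of growth.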

How the values were obtained:
Assay in all cases: NCI tumour cell line growth inhibition, 48 h
XF 498 CNS = test system: XF 498 CNS
HT29 colon = test system: HT29 colon
KM20L2 colon = test system: KM20L2 colon
DU-145 prostate = test system: DU-145 prostate
HOP-62 NSCLC = test system: HOP-62 NSCLC
SNB-19 CNS = test system: SNB-19 CNS
HOP-18 NSCLC = test system: HOP-18 NSCLC
SK-MEL-5 melanoma = test system: SK-MEL-5 melanoma
MCF7 breast = test system: MCF7 breast
TK-10 renal = test system: TK-10 renal
OVCAR-4 ovarian = test system: OVCAR-4 ovarian
PC-3 prostate = test system: PC-3 prostate
A549 NSCLC = test system: A549 NSCLC
U251 CNS = test system: U251 CNS
HL-60(TB) leukemia = test system: HL-60(TB) leukemia
NCI-H522 lung = test system: NCI-H522 lung
A498 renal = test system: A498 renal
HS 578T breast = test system: HS 578T breast
OVCAR-8 ovarian = test system: OVCAR-8 ovarian
T-47D breast = test system: T-47D breast
KM12 colon = test system: KM12 colon
K-562 leukemia = test system: K-562 leukemia
786-0 renal = test system: 786-0 renal
DMS 114 small cell lung = test system: DMS 114 small cell lung
P388 leukemia = test system: P388 leukemia
MDA-MB-435 = test system: MDA-MB-435
UACC-257 melanoma = test system: UACC-257 melanoma
SK-OV-3 ovarian = test system: SK-OV-3 ovarian
HCT-15 colon = test system: HCT-15 colon
OVCAR-5 ovarian = test system: OVCAR-5 ovarian
NCI/ADR-RES ovarian = test system: NCI/ADR-RES ovarian
SK-MEL-28 melanoma = test system: SK-MEL-28 melanoma
NCI-H23 lung = test system: NCI-H23 lung
HCT-116 colon = test system: HCT-116 colon
SF-295 CNS = test system: SF-295 CNS
IGROV1 ovarian = test system: IGROV1 ovarian
COLO 205 colon = test system: COLO 205 colon
P388/ADR leukemia = test system: P388/ADR leukemia
MOLT-4 leukemia = test system: MOLT-4 leukemia
DLD-1 colon = test system: DLD-1 colon
ACHN renal = test system: ACHN renal
OVCAR-3 ovarian = test system: OVCAR-3 ovarian
EKVX NSCLC = test system: EKVX NSCLC
SK-MEL-2 melanoma = test system: SK-MEL-2 melanoma
SN12C renal = test system: SN12C renal
LOX IMVI melanoma = test system: LOX IMVI melanoma
SW-620 colon = test system: SW-620 colon
SF-268 CNS = test system: SF-268 CNS
BT-549 breast = test system: BT-549 breast
SN12K1 renal = test system: SN12K1 renal
SR leukemia = test system: SR leukemia
SF-539 CNS = test system: SF-539 CNS

O=CC(NC(=O)N(CCCl)N=O)C(O)C(O)C(O)CO (stereo unspecified)
TGI (XF 498 CNS): 415 µM and > 1250 µM | GI50 (HT29 colon): > 625 µM | TGI (HT29 colon): > 1250 µM | GI50 (KM20L2 colon): > 625 µM | TGI (KM20L2 colon): > 1250 µM | TGI (DU-145 prostate): > 1250 µM | GI50 (HOP-62 NSCLC): 115 µM | TGI (HOP-62 NSCLC): 536 µM and 422 µM | GI50 (SNB-19 CNS): 62.6 µM and 384 µM | TGI (SNB-19 CNS): 625 µM and > 1250 µM | GI50 (HOP-18 NSCLC): > 625 µM | TGI (HOP-18 NSCLC): > 1250 µM | GI50 (SK-MEL-5 melanoma): 161 µM | TGI (SK-MEL-5 melanoma): 625 µM and 647 µM | GI50 (MCF7 breast): 485 µM | TGI (MCF7 breast): 625 µM and > 1250 µM | TGI (TK-10 renal): > 1250 µM | GI50 (OVCAR-4 ovarian): > 625 µM | TGI (OVCAR-4 ovarian): > 1250 µM | TGI (PC-3 prostate): > 1250 µM | GI50 (A549 NSCLC): 162 µM and 584 µM | TGI (A549 NSCLC): 625 µM and > 1250 µM | GI50 (U251 CNS): 69.2 µM and 105 µM | TGI (U251 CNS): 625 µM and > 1250 µM | GI50 (HL-60(TB) leukemia): 144 µM and 420 µM | TGI (HL-60(TB) leukemia): 625 µM and > 1250 µM and 1070 µM | GI50 (NCI-H522 lung): > 625 µM | TGI (NCI-H522 lung): > 1250 µM | GI50 (A498 renal): > 1250 µM | TGI (A498 renal): > 1250 µM | TGI (HS 578T breast): > 1250 µM | GI50 (OVCAR-8 ovarian): > 625 µM and 587 µM | TGI (OVCAR-8 ovarian): > 1250 µM | TGI (T-47D breast): > 1250 µM | GI50 (KM12 colon): 541 µM | TGI (KM12 colon): 625 µM and > 1250 µM | GI50 (K-562 leukemia): > 198 µM and 1040 µM | TGI (K-562 leukemia): > 1250 µM | TGI (786-0 renal): 593 µM | GI50 (DMS 114 small cell lung): 218 µM and > 1250 µM | TGI (DMS 114 small cell lung): 625 µM and > 1250 µM | TGI (P388 leukemia): > 1250 µM | TGI (MDA-MB-435): > 1250 µM | GI50 (UACC-257 melanoma): > 625 µM | TGI (UACC-257 melanoma): > 1250 µM | GI50 (SK-OV-3 ovarian): 279 µM | TGI (SK-OV-3 ovarian): 576 µM and > 1250 µM | GI50 (HCT-15 colon): > 625 µM | TGI (HCT-15 colon): > 1250 µM | GI50 (OVCAR-5 ovarian): > 625 µM | TGI (OVCAR-5 ovarian): > 1250 µM | GI50 (NCI/ADR-RES ovarian): 499 µM and > 1250 µM | TGI (NCI/ADR-RES ovarian): 625 µM and > 1250 µM | GI50 (SK-MEL-28 melanoma): > 1250 µM | TGI (SK-MEL-28 melanoma): > 1250 µM | GI50 (NCI-H23 lung): 233 µM and > 1250 µM | TGI (NCI-H23 lung): 625 µM and > 1250 µM | GI50 (HCT-116 colon): 302 µM and 1030 µM and 467 µM | TGI (HCT-116 colon): 625 µM and > 1250 µM and > 992 µM | GI50 (SF-295 CNS): 31.5 µM | TGI (SF-295 CNS): 625 µM and 764 µM | GI50 (IGROV1 ovarian): 460 µM and > 1250 µM | TGI (IGROV1 ovarian): 625 µM and > 1250 µM | GI50 (COLO 205 colon): > 625 µM | TGI (COLO 205 colon): > 1250 µM | GI50 (P388/ADR leukemia): 34.5 µM and 65 µM | TGI (P388/ADR leukemia): 360 µM and > 1250 µM | GI50 (MOLT-4 leukemia): 104 µM | TGI (MOLT-4 leukemia): 625 µM and > 1060 µM | GI50 (DLD-1 colon): > 625 µM | TGI (DLD-1 colon): > 1250 µM | TGI (ACHN renal): > 1250 µM | GI50 (OVCAR-3 ovarian): > 625 µM | TGI (OVCAR-3 ovarian): > 1250 µM | GI50 (EKVX NSCLC): > 625 µM | TGI (EKVX NSCLC): > 1250 µM | GI50 (SK-MEL-2 melanoma): > 625 µM | TGI (SK-MEL-2 melanoma): > 1250 µM | GI50 (SN12C renal): 206 µM and > 1250 µM | TGI (SN12C renal): 625 µM and > 1250 µM | GI50 (LOX IMVI melanoma): 50 µM and 303 µM and 78.7 µM | TGI (LOX IMVI melanoma): 384 µM and > 1250 µM and 661 µM | GI50 (SW-620 colon): 171 µM and > 1250 µM | TGI (SW-620 colon): 625 µM and > 1250 µM | GI50 (SF-268 CNS): 19.8 µM and 137 µM | TGI (BT-549 breast): > 1250 µM | GI50 (SN12K1 renal): 133 µM and 290 µM | TGI (SN12K1 renal): 625 µM and > 1250 µM | TGI (SR leukemia): > 623 µM | GI50 (SF-539 CNS): 40 µM and 255 µM | TGI (SF-539 CNS): 483 µM and > 1250 µM and 614 µM
